Source: ChEMBL document CHEMBL1133689, “7-Chloro-4,5-dihydro-8-(1,2,4-triazol-4-yl)-4-oxo-1,2,4-triazolo[1, 5-a]quinoxaline-2-carboxylates as novel highly selective AMPA receptor antagonists” (J Med Chem, 2000)

Assays:
[1] = Compound was evaluated for inhibition of binding of [3H]glycine to specific binding at glycine receptor in rat cortical membrane at 100 uM; type: cell membranes
Mus musculus [2] = species: Mus musculus; assay: Ability to inhibit depolarizations induced by NMDA in mouse cortical wedge preparations.; type: functional, organism-based
[3] = biological target: Glutamate receptor ionotropic, AMPA (Rattus norvegicus, UniProt P19490+P19491+P19492+P19493); assay: Compound was evaluated for inhibition of binding of [3H]AMPA to specific binding at Ionotropic glutamate receptor AMPA in rat cortical membrane; type: cell membranes
[4] = biological target: Glutamate receptor ionotropic, kainate (Rattus norvegicus) (UniProt P22756+Q01812+P42260+P42264+Q63273); assay: Compound was evaluated for inhibition of binding of [3H]KA to specific binding at Ka receptor in rat cortical membrane at 100 uM; type: cell membranes
Mus musculus [5] = species: Mus musculus; assay: Ability to inhibit depolarizations induced by AMPA in mouse cortical wedge preparations; type: functional, organism-based
[6] = Compound was evaluated for inhibition of binding of [3H]glycine to specific binding at glycine receptor in rat cortical membrane; type: cell membranes
[7] = biological target: Glutamate receptor ionotropic, kainate; assay: Compound was evaluated for inhibition of binding of [3H]KA to specific binding at Ka receptor in rat cortical membrane; type: cell membranes

| Compound | inhibition [1] | IC50 (Mus musculus [2]) | Ki [3] | inhibition [4] | IC50 (Mus musculus [5]) | Ki [6] | IC50 [7] |
| --- | --- | --- | --- | --- | --- | --- | --- |
| O=C(O)c1cc(O)c2c(Cl)cc(Cl)cc2n1 | – | 4.7 µM | – | 8% | 52 µM | 0.09 µM | – |
| O=C(O)c1nc2c(=O)[nH]c3cc(Cl)c(-n4ccnc4)cc3n2n1 | – | – | 0.98 µM | – | – | – | 16.8 µM |
| O=C(O)c1nc2c(O)nc3cc(Cl)c([N+](=O)[O-])cc3n2n1 | – | 75 µM | – | 41% | 75 µM | 2.2 µM | – |
| O=C(O)c1nc2c(O)nc3cc(Cl)c(-n4ccnc4)cc3n2n1 | 45% | – | – | – | – | – | – |

Continued, values first:

| inhibition [1] | IC50 (Mus musculus [2]) | Ki [3] | inhibition [4] | IC50 (Mus musculus [5]) | Ki [6] | IC50 [7] | Compound |
| --- | --- | --- | --- | --- | --- | --- | --- |
| 39% | > 100 µM | 2.3 µM | 24% | 22 µM | – | – | CCOC(=O)c1nc2c(O)nc3cc(Cl)c(-n4ccnc4)cc3n2n1 |
| 15% | 100 µM | 0.7 µM | 42% | 15 µM | – | – | CCOC(=O)c1nc2c(O)nc3cc(Cl)c(-n4cnnc4)cc3n2n1 |
| – | 46 µM | 0.14 µM | – | 2.3 µM | 33.5 µM | 11.6 µM | O=C(O)c1nc2c(O)nc3cc(Cl)c(-n4cnnc4)cc3n2n1 [TQX-173] |
| 3% | – | – | – | 0.2 µM | – | – | NS(=O)(=O)c1cccc2c1c([N+](=O)[O-])cc1nc(O)c(O)nc12 [NBQX] |
